Experimental findings from ChEMBL document CHEMBL4118100, “High Mobility Group Box-1 (HMGb1): Current Wisdom and Advancement as a Potential Drug Target” (J Med Chem, 2018) are described below.

In assay [1] the target is T1, High mobility group protein B1 (Homo sapiens, UniProt P09429).
T1 sequence (P09429 whole entry): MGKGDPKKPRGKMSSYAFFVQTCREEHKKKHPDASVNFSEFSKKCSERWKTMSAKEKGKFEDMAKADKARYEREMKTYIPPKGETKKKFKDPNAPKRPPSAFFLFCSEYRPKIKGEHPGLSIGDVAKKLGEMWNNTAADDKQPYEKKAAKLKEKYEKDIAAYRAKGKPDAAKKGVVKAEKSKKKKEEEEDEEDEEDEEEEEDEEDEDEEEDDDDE
As to the kind of experiment: Binding affinity to N-terminal 6His-tagged HMGB1 Bj region (88 to 181 residues) (unknown origin) expressed in Escherichia coli JM109 by SPR assay. On the technique in general: In SPR one partner is held on a chip, and binding of the other changes the refractive index at the surface.

The target of assay [2] is T1, High mobility group protein B1. Description: Binding affinity to N-terminal 6His-tagged HMGB1 AI region (1 to 87 residues) (unknown origin) expressed in Escherichia coli JM109 by SPR assay.
Assay [3] addresses Toll-like receptor 4/MD-2 (Homo sapiens, UniProt O00206+Q9Y6Y9). Description: Binding affinity to recombinant human 10His-tagged TLR4 (24 to 631 residues)/recombinant human 10His-tagged MD2 (17 to 160 residues) after 5 mins by SPR assay. Type of assay: protein-complex assay.
For assay [4], the target named is T1, High mobility group protein B1. As to the kind of experiment: Binding affinity to recombinant HMGB1 A box region (1 to 89 residues) (unknown origin) expressed Escherichia coli after 5 mins by fluorescence-based assay.
Assay [5] shares this target. As to the kind of experiment: Binding affinity to recombinant HMGB1 B box region (90 to 175 residues) (unknown origin) expressed Escherichia coli after 5 mins by fluorescence-based assay.
For assay [6] the target is unchanged. As to the kind of experiment: Binding affinity to recombinant HMGB1 box B (unknown origin).
Assay [7] has the same target. As to the kind of experiment: Binding affinity to recombinant HMGB1 box A (unknown origin).

Residues, ends and D or L forms follow the SMILES beside them.

Chain of Toll-like receptor 4/MD-2 (O00206 whole entry, the tested form may be a part): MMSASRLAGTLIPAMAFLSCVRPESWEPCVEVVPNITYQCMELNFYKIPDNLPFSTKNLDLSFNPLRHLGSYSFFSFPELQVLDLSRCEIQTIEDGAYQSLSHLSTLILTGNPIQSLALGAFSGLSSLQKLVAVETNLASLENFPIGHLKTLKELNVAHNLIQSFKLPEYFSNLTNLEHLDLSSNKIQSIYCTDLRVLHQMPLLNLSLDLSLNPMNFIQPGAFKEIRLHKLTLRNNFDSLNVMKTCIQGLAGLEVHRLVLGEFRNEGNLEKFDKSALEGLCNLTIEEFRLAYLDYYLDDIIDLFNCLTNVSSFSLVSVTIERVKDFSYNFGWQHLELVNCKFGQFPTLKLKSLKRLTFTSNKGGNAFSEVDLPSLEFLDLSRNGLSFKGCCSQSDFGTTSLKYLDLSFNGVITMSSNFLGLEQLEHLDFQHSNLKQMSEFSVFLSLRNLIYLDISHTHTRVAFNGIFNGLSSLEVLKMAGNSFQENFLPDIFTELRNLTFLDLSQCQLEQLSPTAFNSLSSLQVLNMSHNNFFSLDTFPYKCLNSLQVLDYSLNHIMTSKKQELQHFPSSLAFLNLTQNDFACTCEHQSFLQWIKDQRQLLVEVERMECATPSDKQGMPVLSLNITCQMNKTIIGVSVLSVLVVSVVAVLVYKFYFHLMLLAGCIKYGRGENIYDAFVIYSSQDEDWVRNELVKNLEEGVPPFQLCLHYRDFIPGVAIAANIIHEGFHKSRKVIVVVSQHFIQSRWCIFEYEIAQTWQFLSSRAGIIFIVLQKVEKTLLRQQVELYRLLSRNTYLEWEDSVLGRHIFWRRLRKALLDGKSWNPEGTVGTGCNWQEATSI
Chain of Toll-like receptor 4/MD-2 (Q9Y6Y9 whole entry, the tested form may be a part): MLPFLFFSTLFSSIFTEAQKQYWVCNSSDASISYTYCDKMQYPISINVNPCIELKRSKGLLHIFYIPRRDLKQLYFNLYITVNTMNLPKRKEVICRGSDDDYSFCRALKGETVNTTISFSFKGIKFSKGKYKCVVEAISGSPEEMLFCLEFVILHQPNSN

As a reminder, the Kd is the concentration at which binding is half-saturated. Turning to `CN(Cc1cnc2nc(N)nc(N)c2n1)c1ccc(C(=O)N[C@@H](CCC(=O)O)C(=O)O)cc1` [METHOTREXATE], the Kd in assay [1] is 0.024 µM; in assay [2], 0.5 µM. Consider `CSCC[C@H](NC(=O)[C@H](C)N)C(=O)N[C@@H](C)C(=O)N[C@@H](CC(C)C)C(=O)N[C@@H](CC(=O)O)C(=O)N[C@@H](CS)C(=O)N[C@@H](Cc1ccccc1)C(=O)N[C@@H](CCCNC(=N)N)C(=O)N[C@@H](Cc1c[nH]c2ccccc12)C(=O)NCC(=O)N[C@@H](Cc1c[nH]c2ccccc12)C(=O)N[C@@H](CCCNC(=N)N)C(=O)N[C@@H](CCSC)C(=O)N[C@@H](Cc1c[nH]c2ccccc12)C(=O)N[C@@H](CS)C(=O)N[C@@H](CO)C(=O)N[C@@H](CO)C(=O)NCC(=O)O` (H-AMALDCFRWGWRMWCSSG-OH), for which the Kd in assay [3] is 5.95 µM. Turning to `CC1(C)[C@@H](O[C@H]2O[C@H](C(=O)O)[C@@H](O)[C@H](O)[C@H]2O[C@@H]2O[C@H](C(=O)O)[C@@H](O)[C@H](O)[C@H]2O)CC[C@]2(C)[C@H]3C(=O)C=C4[C@@H]5C[C@@](C)(C(=O)O)CC[C@]5(C)CC[C@@]4(C)[C@]3(C)CC[C@@H]12` [GLYCYRRHIZIN], the Kd in assay [4] was 103 µM; in assay [5] it was 87 µM. Regarding `O=C(O)c1ccccc1O` [SALICYLIC ACID], the Kd in assay [6] and in assay [7] was 1 to 10 µM throughout.
